PubChem BioAssay (NCI)
Several values for one entry are separate records, joined by “and”; a condition that tells them apart may be missing. Equal entries are not always repeated.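 Following 48 hours of exposure in 96-well plates, responses at five concentrations were used to interpolate endpoints linearly. Here, GI50 denotes the concentration required for 50% inhibition of growth. At the TGI there is no net growth.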

Assays:
Test in all cases: NCI tumour cell line growth inhibition, 48 h
[1] = test system: SF-539 CNS
[2] = test system: SK-OV-3 ovarian
[3] = test system: U251 CNS
[4] = test system: HCT-15 colon
[5] = test system: HT29 colon
[6] = test system: SK-MEL-5 melanoma
[7] = test system: MALME-3M melanoma
[8] = test system: HL-60(TB) leukemia
[9] = test system: MCF7 breast
[10] = test system: NCI-H226 lung

Row | Compound | GI50 [1] | TGI [1] | GI50 [2] | TGI [2] | GI50 [3] | TGI [3] | GI50 [4] | TGI [4] | GI50 [5] | TGI [5] | GI50 [6] | TGI [6] | GI50 [7] | TGI [7] | GI50 [8] | TGI [8] | GI50 [9] | TGI [9] | GI50 [10] | TGI [10]
1 | O=C(Nc1ncc(Cc2ccccc2)s1)c1ccc2c(c1)OCCO2 | 0.0283 µM | 0.177 µM | 0.0681 µM | 26.9 µM | 0.0418 µM | > 100 µM | 0.0385 µM | > 100 µM | 0.0506 µM | > 22 µM | 0.0428 µM | 0.454 µM | 0.042 µM | > 100 µM | 0.0416 µM | > 100 µM | 0.0546 µM | > 100 µM | 0.278 µM | 7.01 µM
2 | CC(C)c1ccc2c(N=Nc3ccc(S(N)(=O)=O)cc3)c(O)[nH]c2c1 | 5.56 µM | > 25 µM | 7.22 µM | 19.3 µM | 5.09 µM | > 17.4 µM | > 22.6 µM | > 25 µM | > 25 µM | > 25 µM | 9.86 µM | > 25 µM | 12.4 µM | > 25 µM | > 25 µM | > 25 µM | > 14.7 µM | > 25 µM | 6.62 µM | > 20.6 µM
3 | CCc1ccc(CCC(=O)Nc2ncc(Cc3cc(Cl)ccc3Cl)s2)o1 | 1.26 µM | 4.1 µM | 2.04 µM | > 50 µM | 1.61 µM | 11.7 µM | 0.508 µM | > 50 µM | 1.17 µM | > 50 µM | 1.21 µM | > 50 µM | 1.38 µM | > 50 µM | 0.887 µM | 2.11 µM | 0.399 µM | > 50 µM | 3.61 µM | > 50 µM
4 | CN(C)c1ccc(/C=C(\C#N)c2cc3ccccc3n2C)cc1 | 0.208 µM | 0.713 µM | 0.532 µM | > 100 µM | 0.357 µM | > 100 µM | 0.0687 µM | > 100 µM | 0.121 µM | 5.64 µM | 0.606 µM | 12.1 µM | 0.133 µM | > 100 µM | 0.0931 µM | – | 0.0379 µM | > 100 µM | 1.46 µM | > 100 µM
5 | CC1(C)CC(=O)C2=C(C1)NC(SSC1=C(C#N)C(c3ccc(Br)cc3)C3=C(CC(C)(C)CC3=O)N1)=C(C#N)C2c1ccc(Br)cc1 (stereo unspecified) | > 150 µg/mL | > 100 µM and 150 µg/mL | > 150 µg/mL | > 100 µM and 150 µg/mL | > 150 µg/mL | > 100 µM and 150 µg/mL | 88.6 µg/mL | > 100 µM and 150 µg/mL | > 150 µg/mL | > 100 µM and 150 µg/mL | > 150 µg/mL | > 100 µM and 150 µg/mL | 35.8 µg/mL | > 100 µM and 98.7 µg/mL | 31.2 µg/mL | > 100 µM and 77.1 µg/mL | > 150 µg/mL | 150 µg/mL | > 150 µg/mL | > 100 µM and 150 µg/mL
6 | C[As](C)Sc1ccnc(S[As](C)C)n1 | 2.77 µM | > 34.8 µM | 12.4 µM | > 100 µM | 7.03 µM | > 100 µM | 0.928 µM | 14.7 µM | 3.98 µM | > 39.3 µM | 2.3 µM | 10.7 µM | 1.66 µM | 11.3 µM | 1.13 µM | – | 3.23 µM | > 35.1 µM | 31.2 µM | > 100 µM
7 | O=C(CCCCCCC(=O)N/N=C/c1ccc(N(c2ccccc2)c2ccccc2)cc1)NO | 2.17 µM | 4.95 µM | 1.6 µM | 5.29 µM | 1.75 µM | 4.46 µM | 2.69 µM | 12 µM | 2.26 µM | 6.76 µM | 1.76 µM | 3.63 µM | 3.25 µM | 15 µM | 2.64 µM | 7.57 µM | 0.601 µM | 11.3 µM | – | –
8 | CC(=O)Oc1ccc2ccc(=O)oc2c1OC(C)=O | – | > 100 µM | – | > 100 µM | – | > 100 µM | – | > 100 µM | – | > 100 µM | – | 94.2 µM | – | > 100 µM | – | 38.1 µM | – | > 100 µM | – | –
9 | CCCn1cc(C2=C(c3cn(C)c4ccccc34)C(=O)NC2=O)c2ccccc21 | 0.689 µM | 2.8 µM | 1.22 µM | > 19 µM | 1.17 µM | 5.33 µM | 0.688 µM | > 19.2 µM | 0.783 µM | 6.16 µM | 0.554 µM | 4.36 µM | 3.44 µM | 9.37 µM | 0.835 µM | 3.64 µM | 0.565 µM | > 16.2 µM | 2.69 µM | 9.78 µM
10 | COc1ccc(Nc2c3c4c(cccc4[nH]c2=O)C(=O)c2ccccc2-3)cc1 | 0.0206 µM | 0.0687 µM | 0.0492 µM | > 56.3 µM | 0.0434 µM | > 68.9 µM | 0.0271 µM | > 100 µM | < 0.01 µM | – | < 0.0172 µM | 0.0451 µM | 0.0663 µM | 48.3 µM | 0.0188 µM | 0.0393 µM | < 0.0182 µM | 21.2 µM | 1.2 µM | > 100 µM
11 | COc1ccc(/C=C2\N=C(c3ccccc3)N(c3cc(C(F)(F)F)ccc3Cl)C2=O)cc1OC | 24.2 µM | 57 µM | > 100 µM | > 100 µM | 39 µM | > 100 µM | 40.7 µM | > 100 µM | 26.9 µM | 63.1 µM | 25 µM | 54.9 µM | 79.7 µM | > 100 µM | 17.6 µM | 47.3 µM | 35.4 µM | > 100 µM | 56.6 µM | > 100 µM
12 | COc1c(OC(C)=O)c(OC(C)=O)cc2c1-c1ccc(OC)c(=O)cc1C(NC(C)=O)CC2 (stereo unspecified) | – | 0.173 µM | – | > 48.1 µM | – | 9.24 µM | – | > 70 µM | – | – | – | 0.0264 µM | – | > 100 µM | – | < 0.0103 µM | – | > 100 µM | – | 1.09 µM
13 | CCOC(=O)C1c2[nH]c3ccccc3c2CCN1C(=O)c1ccco1 (stereo unspecified) | – | > 10 µM | – | > 10 µM | – | > 10 µM | – | > 10 µM | – | > 10 µM | – | > 10 µM | – | > 10 µM | – | > 10 µM | – | > 10 µM | – | –
14 | COc1ccc2c(CC(=O)O)cc(=O)oc2c1 | – | > 100 µM | – | – | – | > 100 µM | – | > 100 µM | – | > 100 µM | – | > 100 µM | – | > 100 µM | – | > 100 µM | – | > 100 µM | – | > 100 µM
